Results on two molecules are retold here after patent US11072596B2, “Poly(ADP-ribose) polymerase inhibitor, preparation method and use” (SELECTION BIOSCIENCE LLC, priority 2017, dated 2021).

Structures are written as SMILES.

One series concerns MDA-MB-436 cells. Nature of the series: Pharmacodynamic study on mouse MDA-MB-436 model. The conditions noted are these: for T/C / TGI / Tumor volume (day 39) / Tumor volume (day 0): MDA-MB-436 in nude mice; for T/C / TGI / Tumor volume (day 39) / rate of test animals in which the tumor completely disappeared: 50 mg/kg PO x 18 days; for T/C / TGI / Tumor volume (day 39): day 39; for Tumor volume (day 0): day 0, before dosing; for rate of test animals in which the tumor completely disappeared: observed until the 39th day; for inhibitory effect on the tumor growth, in words: 50 mg/kg, continuous PO administration for 18 days. It counts as in vivo, BALB/c nude mice. The procedure: BALB/c nude mice, aged 6-8 weeks old, weighing 18-22 g, female, provided by Shanghai Lab Animal Research Center (Shanghai Xipuer-Beikai) with the animal certificate no: 20130016001914.
Human breast cancer MDA-MB-436 cells (ATCC, Manacas, Va., Article number (Art. No.): ATCC-HTB-130) were cultured in vitro in monolayer under the conditions of RPMI1640 medium with 10% fetal bovine serum and 37° C. 5% CO2 incubator. The passage was routinely digested with trypsin-EDTA twice a week. When the cell saturation was up to 80%-90% and reached the requirement, the cells were collected, counted and inoculated. 0.2 mL (1×10^7) MDA-MB-436 cells (added with matrix gel, volume ratio 1:1) were subcutaneously inoculated into the right back of each mouse, and mice were randomly grouped and dosed when the average tumor volume reached 157 mm^3.
2.5 g of methylcellulose was slowly added into 80 mL of deionized water in a suitable container under stirring, stirred until uniform, 10 mL of Tween 80 was added to the solution, stirred until uniform, continued to add deionized water to 500 mL, and stirred until uniform to obtain a vehicle solution. Then an appropriate amount of p-toluenesulfonate of example 23 was weighed, and an appropriate amount of the above vehicle solution was added and vortexed until uniform.
The subcutaneous tumor volumes of nude mice were measured 2-3 times a week, and the mice were weighed, and the data were recorded.
Experimental evaluation index: tumor growth inhibition rate TGI (%) or relative tumor proliferation rate T/C (%) was used for evaluation, wherein T was the experimental group, and C was the control group.
Calculation of relative tumor proliferation rate: If T>T0, T/C (%)=(T−T0)/(C−C0)×100%, if T<T0, T/C (%)=(T−T0)/T0×100%, wherein T and C were tumor volumes at the end of the experiment; T0 and C0 were tumor volumes at the beginning of the experiment.

For another series, the target named is T1, CYP1A2 (Homo sapiens, UniProt P05177).
T1 construct: from tissue; host or cells: human liver microsomes (HLM)
T1 sequence (P05177 1-516): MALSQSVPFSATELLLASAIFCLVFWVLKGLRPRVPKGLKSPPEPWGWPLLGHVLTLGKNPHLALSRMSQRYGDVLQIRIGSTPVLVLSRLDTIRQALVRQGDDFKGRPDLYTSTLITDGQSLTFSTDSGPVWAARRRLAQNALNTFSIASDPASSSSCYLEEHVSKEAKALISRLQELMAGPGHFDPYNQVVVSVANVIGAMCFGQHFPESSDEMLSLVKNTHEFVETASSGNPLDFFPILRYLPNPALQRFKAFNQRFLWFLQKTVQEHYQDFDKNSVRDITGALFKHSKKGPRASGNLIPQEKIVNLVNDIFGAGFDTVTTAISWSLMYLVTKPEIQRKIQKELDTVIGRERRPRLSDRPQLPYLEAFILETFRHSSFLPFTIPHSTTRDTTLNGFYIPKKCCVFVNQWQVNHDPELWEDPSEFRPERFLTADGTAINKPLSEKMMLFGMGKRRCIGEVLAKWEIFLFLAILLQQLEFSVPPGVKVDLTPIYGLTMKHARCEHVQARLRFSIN
Description: Inhibition of human liver microsomal CYP450 enzymes, CYP1A2. It counts as in vitro ADME. As to conditions: human liver microsomes, substrate Phenacetin 30 μM; Reference = α-naphthoflavone; read-out: IC50 1A2. The procedure:
The inhibitory effects of the compound of the present disclosure on the CYP450 enzymes of six human subtypes were determined by the following experimental method:
Reference compounds of each subtype: CYP1A2: α-naphthoflavone; CYP2C9: sulfaphenazole; CYP2C19: omeprazole; CYP3A4: ketoconazole; CYP2D6: quinidine.
Substrate concentration: CYP1A2: Phenacetin at 30 μM; CYP2C9: Diclofenac at 10 μM; CYP2C19: S-Mephenytoin at 35 μM; CYP3A4: Midazolam at 5 μM and Testosterone at 80 μM; CYP2D6: Bufuralol at 10 μM.
6. 0.2 mg/mL of HLM was added to the test wells, 400 μL per well, and then the gradient diluted 400× test compound was added to the corresponding wells.
7. 0.2 mg/mL of HLM was added to the test wells, 200 μL per well, and then the gradient-diluted reference inhibitor was added to the corresponding wells. Steps 6 and 7 needed to be performed on ice.
8.1. 30 μL of test compound and reference compound were mixed in 0.2 mg/mL of HLM solution (see steps 6 and 7).
8.2. 15 μL of 4× substrate solution (see step 4) was added.
10. Preheated 8 mM of NADPH solution was added to the 96-well test plate (see step 3) to initiate the reaction, 15 μL per well.
11. The test plate was incubated at 37° C.: 3A4 for 5 minutes, each of 1A2, 2C9 and 2D6 for 10 minutes, and 2C19 for 45 minutes.
12. ACN containing internal reference was added to stop the reaction, 120 μL per well.
14. […]
(Liver microsomes are vesicles of endoplasmic reticulum, rich in cytochrome P450 enzymes.)

Series [1] concerns the target hERG potassium ion channel (Homo sapiens, UniProt Q12809). Description: hERG potassium ion channel inhibitory activity (Qpatch, CHO-hERG cells). As to conditions: for inhibition at 2.5 min, 40 µM: human. The procedure:
CHO-hERG cells were cultured in a 175 cm^2 flask, and when the cell density was increased to 60-80%, the medium was removed and washed with 7 mL of PBS (Phosphate Buffered Saline phosphate buffer), and then digested with 3 mL of Detachin.
The single-cell high impedance sealing and the whole-cell mode formation process were all automatically completed by the Qpatch instrument. After obtaining the whole-cell recording mode, the cells were clamped at −80 mV (millivolt). Before giving a 5-second+40 mV depolarization stimulus, a 50 ms-50 mV pre-voltage was first given, repolarized to −50 mV for 5 seconds, and then returned to −80 mV. This voltage stimulation was applied every 15 seconds. After recording for 2 minutes, extracellular fluid was given for 5 minutes, and then the administration process was started. The compound concentration started from the lowest test concentration, and each test concentration was given for 2.5 minutes. […] At least 3 cells were tested at each concentration (n≥3).
The 20 mM compound mother solution was diluted with extracellular fluid, and 5 μL of 20 mM compound mother solution was added to 2495 μL of extracellular solution, diluted 500-fold to 40 μM, and then sequentially performed 3-fold continuous dilution in an extracellular fluid containing 0.2% DMSO to obtain the final concentration to be tested.
The experimental data were analyzed by XLFit software.
(In general: Block of hERG is tested as a sign of cardiac risk.)

Sequence of hERG potassium ion channel (Q12809 whole entry): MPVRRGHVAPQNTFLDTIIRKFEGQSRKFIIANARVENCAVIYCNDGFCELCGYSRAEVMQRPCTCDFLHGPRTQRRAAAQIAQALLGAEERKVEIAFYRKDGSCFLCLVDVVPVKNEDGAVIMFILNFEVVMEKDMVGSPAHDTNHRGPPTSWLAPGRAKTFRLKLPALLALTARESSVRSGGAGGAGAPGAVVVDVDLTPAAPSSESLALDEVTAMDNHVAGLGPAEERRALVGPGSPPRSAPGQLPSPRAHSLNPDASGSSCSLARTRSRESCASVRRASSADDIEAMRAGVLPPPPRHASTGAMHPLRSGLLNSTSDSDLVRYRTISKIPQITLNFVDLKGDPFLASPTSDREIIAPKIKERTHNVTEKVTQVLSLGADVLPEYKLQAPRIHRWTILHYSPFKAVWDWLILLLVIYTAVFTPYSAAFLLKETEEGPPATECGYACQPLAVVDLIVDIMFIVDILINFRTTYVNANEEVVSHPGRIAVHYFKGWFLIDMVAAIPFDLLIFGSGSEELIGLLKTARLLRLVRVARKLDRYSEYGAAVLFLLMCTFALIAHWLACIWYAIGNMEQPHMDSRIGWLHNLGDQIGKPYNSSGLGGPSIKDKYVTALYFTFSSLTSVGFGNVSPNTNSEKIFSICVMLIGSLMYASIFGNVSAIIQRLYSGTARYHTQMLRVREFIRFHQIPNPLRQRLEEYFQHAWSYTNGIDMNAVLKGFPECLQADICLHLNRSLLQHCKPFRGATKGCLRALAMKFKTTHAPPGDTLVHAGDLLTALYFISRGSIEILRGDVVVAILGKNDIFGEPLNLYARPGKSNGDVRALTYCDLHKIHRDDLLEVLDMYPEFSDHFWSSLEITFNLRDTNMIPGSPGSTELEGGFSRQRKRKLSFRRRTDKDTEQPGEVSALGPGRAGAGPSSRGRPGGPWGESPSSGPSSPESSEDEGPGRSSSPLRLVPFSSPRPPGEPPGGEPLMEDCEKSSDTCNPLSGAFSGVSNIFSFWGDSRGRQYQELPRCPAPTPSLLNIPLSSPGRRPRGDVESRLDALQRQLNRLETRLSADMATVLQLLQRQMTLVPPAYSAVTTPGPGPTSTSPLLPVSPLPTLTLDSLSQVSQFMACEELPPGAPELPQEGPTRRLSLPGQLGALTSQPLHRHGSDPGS

What is called IC50 is the concentration that inhibits the measured activity by half. The inhibition is the share of the control response that was lost under treatment. Low values mean a weak effect, high ones a strong effect. Regarding `NC(=O)c1cccc2cn(-c3ccc([C@@H]4CCCNC4)cc3)nc12` [Niraparib, reference compound], in the series on MDA-MB-436 cells, the T/C is 1.5%, the TGI was determined as 98.5%, the “Tumor volume (day 39)” value was found to be 187 mm^3 and the “Tumor volume (day 0)” value is on record as 157 mm^3. Besides, in the series with MDA-MB-436 cells (nude mouse MDA-MB-436 model), the “rate of test animals in which the tumor completely disappeared” value is reported as “zero” and the “inhibitory effect on the tumor growth, in words” value is recorded as “very strong inhibitory effect”. Further, the IC50 at CYP1A2 was over 10 µM. Moreover, inhibition in series [1] was half-maximal at 39.6 µM (IC50). The molecule further yielded an inhibition at 2.5 min, 40 µM in series [1] (CHO cells that express hERG (CHO-hERG)) of 50.4%.

For the molecule `NC(=O)c1cccc2cn(-c3ccc([C@]4(F)CCCNC4)cc3)nc12` (single isomer, unassigned) [Example 23, (R or S)-2-(4-(3-fluoropiperidin-3-yl)phenyl)-2H-indazole-7-carboxamide], in the series with MDA-MB-436 cells, the T/C is on record as −68%, the TGI is 168%, the “Tumor volume (day 39)” value came out at 49 mm^3 and the “Tumor volume (day 0)” value is on record as 157 mm^3. Moreover, the “anti-tumor activity compared with positive control Niraparib, in words” value with MDA-MB-436 cells (nude mouse MDA-MB-436 model, 50 mg/kg PO for 18 days) is “stronger”. In the series with MDA-MB-436 cells (nude mouse MDA-MB-436 model), the “rate of test animals in which the tumor completely disappeared” value was found to be 50% and the “inhibitory effect on the tumor growth, in words” value was “very strong inhibitory effect”. For the same molecule, the IC50 on CYP1A2 was over 10 µM. In series [1], this molecule returned an IC50 of over 40 µM and an inhibition at 2.5 min, 40 µM of 29.8%.
